Assay results from ChEMBL document CHEMBL1201862, “PubChem BioAssay data set” (2004).
Calls of active or inactive are those of the source. The rule behind the calls is not given here.

Key:
[1] = molecular target: T1, High affinity choline transporter 1 (Homo sapiens, UniProt Q9GZV3); test: CHT inhibitors, dose response, cell-based, 10-point CRC, membrane potential dye (AID 588401); assay type: functional;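 note: membrane potential dye fluorescence of choline-evoked depolarization via CHT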
T1 sequence (Q9GZV3 whole entry): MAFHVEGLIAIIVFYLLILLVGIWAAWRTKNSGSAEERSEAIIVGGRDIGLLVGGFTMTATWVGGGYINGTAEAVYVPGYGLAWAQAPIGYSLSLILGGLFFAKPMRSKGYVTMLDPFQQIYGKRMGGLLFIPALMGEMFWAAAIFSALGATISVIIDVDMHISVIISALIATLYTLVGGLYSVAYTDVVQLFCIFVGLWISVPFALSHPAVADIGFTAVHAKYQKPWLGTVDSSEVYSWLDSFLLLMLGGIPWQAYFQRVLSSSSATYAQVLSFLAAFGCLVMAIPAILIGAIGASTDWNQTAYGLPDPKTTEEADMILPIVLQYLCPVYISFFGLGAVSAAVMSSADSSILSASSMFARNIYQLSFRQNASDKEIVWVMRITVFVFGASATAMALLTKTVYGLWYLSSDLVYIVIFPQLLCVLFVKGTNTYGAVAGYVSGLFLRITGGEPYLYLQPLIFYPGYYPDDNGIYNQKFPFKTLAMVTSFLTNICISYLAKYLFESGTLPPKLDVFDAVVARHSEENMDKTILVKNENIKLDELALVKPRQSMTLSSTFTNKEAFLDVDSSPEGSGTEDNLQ

[2] = molecular target: T1, High affinity choline transporter 1; test: CHT inhibitors, dose response, cell-based, 5-point CRC, membrane potential dye (AID 504840); assay type: functional

IC50 [1]: 4.28 µM (active)
IC50 [2]: 7.88 µM (active)
SMILES: CCOc1ccccc1Nc1ccc2nonc2c1[N+](=O)[O-]
